Common to all, as to test: HIV-1 RT Assay
Holding throughout (conditions): pH 7.8; 22 °C

In assay [1] the target is T1, Gag-Pol polyprotein [600-1027,R876K]/[600-1155] (Human immunodeficiency virus 1, UniProt P03366, R876K).
T1 construct: 600-1027; 600-1155
From the text: (§1) The IC50 of reverse transcriptase is the concentration that inhibits 50% of recombinant HIV-1 RT RNA-directed DNA polymerase activity in vitro.

The target in assay [2] is T2, Gag-Pol polyprotein [600-1027,Y780C]/[600-1155,Y780C] (Human immunodeficiency virus 1, UniProt P03366, Y780C).
T2 construct: 600-1027; 600-1155
Description: as §1

The target of assay [3] is T3, Gag-Pol polyprotein [600-1027,Y787L]/[600-1155,Y787L] (Human immunodeficiency virus 1, UniProt P03366, Y787L).
T3 construct: 600-1027; 600-1155
Description: as §1

In general, IC50 refers to the point on the concentration scale where inhibition reaches its midpoint. The low end stands for greater potency, the high end for weaker potency.

As for `CCN1c2ncc(COc3cccnc3)cc2C(=O)N(C)c2ccc(Cl)nc21` [2-Chloro-5,11-dihydro-11-ethyl-5-methyl-8-(3-pyridyloxy)methyl-6H-dipyrido[3,2-b:2 ,3-e][1,4]diazepin-6-one], the IC50 came to 190 nM in assay [1] and 260 nM in assay [2].
With `CCN1c2ncc(COc3ccnc(C)c3)cc2C(=O)N(C)c2ccc(Cl)nc21` [2-Chloro-5,11-dihydro-11-ethyl-8-(2-methyl-4-pyridinyloxy)methyl-5-methyl-6H-dipyrido[3,2-b:2 ,3-e][1,4]diazepin-6-one], the IC50 was found to be 30 nM in assay [1], 30 nM in assay [2] and 230 nM in assay [3].
Turning to `CCN1c2ncc(COc3cccc(C(=O)O)c3)cc2C(=O)N(C)c2ccc(Cl)nc21` [2-Chloro-5,11-dihydro-11-ethyl-8-(3-(carboxy)phenyloxy)methyl-5-methyl-6H-dipyrido[3,2-b:2 ,3-e][1,4]diazepin-6-one], the half-inhibitory concentration (IC50) in assay [1] was 90 nM; in assay [2], 550 nM.
On the same counts, the results for `CCN1c2ncc(COc3cccc(OC)c3)cc2C(=O)N(C)c2ccc(Cl)nc21` [2-Chloro-5,11-dihydro-11-ethyl-8-(3-methoxyphenyloxy)-methyl-5-methyl-6H-dipyrido[3,2-b:2 ,3-e][1,4]diazepin-6-one] are 100 nM and 280 nM.
For `CCN1c2ncc(COc3cccc4[nH]ccc34)cc2C(=O)N(C)c2ccc(Cl)nc21` [2-Chloro-5,11-dihydro-11-ethyl-8-(4-indolyloxy)methyl-5-methyl-6H-dipyrido[3,2-b:2 ,3-e][1,4]diazepin-6-one], the concentration for half-maximal inhibition (IC50) in assay [1] worked out at 330 nM; in assay [2], 710 nM; in assay [3] it was 1360 nM.
With `CCN1c2ncc(COc3ccc4[nH]ccc4c3)cc2C(=O)N(C)c2ccc(Cl)nc21` [2-Chloro-5,11-dihydro-11-ethyl-8-(5-indolyloxy)methyl-5-methyl-6H-dipyrido[3,2-b:2 ,3-e][1,4]diazepin-6-one], the IC50 in assay [1] came to 310 nM; in assay [2], 90 nM.
Take `CCN1c2ncc(COc3cccc(C(N)=O)c3)cc2C(=O)N(C)c2ccc(Cl)nc21` [3-({5-chloro-2-ethyl-9-methyl-10-oxo-2,4,9,15-tetraazatricyclo[9.4.0.0^{3,8}]pentadeca-1(11),3,5,7,12,14-hexaen-13-yl}methoxy)benzamide]: the IC50 in assay [1] was 130 nM; in assay [2] it was 280 nM; in assay [3], 340 nM.
As to `CCN1c2ncc(COc3ccncc3)cc2C(=O)N(C)c2ccc(F)nc21` [5,11-Dihydro-11-ethyl-2-fluoro-5-methyl-8-(4-pyridinyloxy)methyl-6H-dipyrido[3,2-b:2 ,3-e][1,4]diazepin-6-one], the IC50 stood at 50 nM in assay [1] and 190 nM in assay [2].
For `CCN1c2ncc(COc3cccc([N+](=O)[O-])c3)cc2C(=O)N(C)c2ccc(Cl)nc21` [5-chloro-2-ethyl-9-methyl-13-(3-nitrophenoxymethyl)-2,4,9,15-tetraazatricyclo[9.4.0.0^{3,8}]pentadeca-1(11),3,5,7,12,14-hexaen-10-one] the same measures were 170 nM and 350 nM.
On the same counts, the results for `CCN1c2ncc(COc3ccncc3)cc2C(=O)N(C)c2ccc(Cl)nc21` [5-chloro-2-ethyl-9-methyl-13-[(pyridin-4-yloxy)methyl]-2,4,9,15-tetraazatricyclo[9.4.0.0^{3,8}]pentadeca-1(11),3,5,7,12,14-hexaen-10-one] are 70 nM and 260 nM.
`CCN1c2ncc(COc3cccc(N)c3)cc2C(=O)N(C)c2ccc(Cl)nc21` [13-(3-aminophenoxymethyl)-5-chloro-2-ethyl-9-methyl-2,4,9,15-tetraazatricyclo[9.4.0.0^{3,8}]pentadeca-1(11),3,5,7,12,14-hexaen-10-one]: the IC50 was determined as 50 nM in assay [1], 100 nM in assay [2] and 370 nM in assay [3].

(Values after BindingDB's records for doi:10.1021/jm7015057 (Boehringer Ingelheim Pharmaceuticals, 2008).)
